{
  "source": "patent US20180250313A1",
  "about": "“COMPOUNDS AND FORMULATIONS FOR TREATING OPHTHALMIC DISEASES” (VIEWPOINT THERAPEUTICS, INC., priority 2015, published 2018)",
  "key": {"[1]": {"test": "Ocular distribution of Compound IIIC after intravitreal administration (LC-MS/MS of ocular tissues)", "format": "in vivo, New Zealand White rabbits", "conditions": "for Levels in the lens: intravitreal", "source_text": "New Zealand White rabbits obtained from the Western Oregon Rabbit Company were used for this study. 12 animals were used in this study, and all animals used were male. Prior to treatment initiation, selection of animals for the study was based on a visual appraisal of good clinical condition and body weight specifications. Animals selected for use in this study were as uniform in age and weight as possible. Animal's weights ranged from about 2.58 to about 3.22 kilograms at the start of the experiment. All animals were healthy at the time of animal selection. All animals were identified by ear tag and by cage cards listing the animal identification number, study number, group, and sex of the animal.\nThe compound of formula IIIC was tested at two different concentrations, 3% weight/volume and 0.5% weight/volume. For both concentrations the compound was formulated as an aqueous suspension. Details of the formulations are as follows: Formulation 1: 3% of ˜500 nm nanoparticles of a compound of formula IIIC in 0.6% tromethamine as buffer, 0.1% polysorbate-80 to aide in dispersion of the API, pH adjusted with boric acid to 7.4, and osmolarity adjusted with mannitol to 293 mOsm. Formulation 2: 0.5% of ˜500 nm nanoparticles of a compound of formula IIIC in 0.6% tromethamine as buffer, 0.1% polysorbate-80 to aide in dispersion of the API, pH adjusted with boric acid to 7.4, and osmolarity adjusted with mannitol to 293 mOsm.\nAnimals were assigned to one of two experimental groups based on body weight, such that each group contained 6 animals. Animals in group 1 were administered 25 μL for formulation 1 by intravitreous injection, while animals in group 2 were administered 25 μL of formulation 2. Within each group animals were further divided into 3 time points, 2 hours, 1 day and 7 days. Each time point consisted of two animals. Administration of formulations 1 and 2 occurred at time 0.\nFor intravitreal injections animals were anesthetized with an intramuscular injection of ketamine hydrochloride (12 to 20 mg/kg) and xylazine (5 mg/kg). One to two drops of topical proparacaine hydrochloride anesthetic (0.5%) were applied to the animal's eyes prior to the surgical procedure. The eyes were cleaned with Betadine and then rinsed with balanced salt solution (BSS). Test article was drawn up directly into a 0.3 mL insulin syringe with a 31G 5/16 inch needle, and injections were made 4 to 5 mm away from the limbus. Once the needle was inserted, 25 μL of the test article was injected. The needle was removed and the eye rinsed with BSS. […] Animals were monitored during recovery.\nAnimals were euthanized at the designated time points by an intravenous injection of pentobarbital (150 mg/kg). […] The concentration of compound IIIC in each collected sample was measured by LC-MS/MS. […]"}, "[2]": {"test": "Ex vivo human tissue pharmacokinetic experiment: entire human globes soaked six days, C29 exposure in areas of the eye", "format": "in vitro ADME", "conditions": "for Calculated Concentration: globe soaked in 1 mM API in 8% cyclodextrin in PBS, six days, room temperature; for Dilution Corrected Concentration: six days soak, 1 mM API in 8% cyclodextrin in PBS", "experimental": "Pharmacokinetic experiments were performed on entire human globes (eye without appendages) to determine exposure of the compound (C29) in various areas of the eye. Each globe was obtained less than 24 hours after collection and then soaked in either a solution of 1 mM API in 8% cyclodextrin in PBS or only PBS for six days at room temperature."}, "[3]": {"test": "Kinetics of compound accumulation in the lens of entire human globes soaked one to four days", "format": "in vitro ADME", "conditions": "human globes in 1 mM API in 8% cyclodextrin in PBS, room temperature", "experimental": "In a similar experiment, entire human globes were used to determine the kinetics of compound accumulation in the lens. A total of eight globes were soaked in a solution of 1 mM API in 8% cyclodextrin in PBS for one, two, three, or four days at room temperature."}},
  "data": [
    {"compound": "C[C@H](CCCC(C)(C)O)[C@H]1CC[C@H]2[C@@H]3CC=C4C[C@@H](O)CC[C@]4(C)[C@H]3CC[C@]12C", "note": "[Compound C29, 25-hydroxycholesterol]", "values": [
      {"measurement": "levels in the vitreous humor, course over time", "setting": "[1]; intravitreal 25 μL, 3% and 0.5% formulation, 2 hr, 24 hr, 168 hr", "result": "decreased steadily at later time points"},
      {"measurement": "levels in the vitreous humor, dependence on dose", "setting": "[1]; intravitreal 25 μL, 3% versus 0.5% formulation, 2 hr, 24 hr, 168 hr", "result": "dose-dependent"},
      {"measurement": "Levels in the lens", "setting": "[1]; earlier time points", "result": "undetectable"},
      {"measurement": "Levels in the lens", "setting": "[1]; higher-dosed group, last time point (7 days after dosing)", "result": "consistently exhibiting detectable levels"},
      {"measurement": "Calculated Concentration", "setting": "[2]; Human Cornea", "result": 2120, "unit": "nM"},
      {"measurement": "Dilution Corrected Concentration", "setting": "[2]; Human Cornea", "result": 4.24, "unit": "µM"},
      {"measurement": "Calculated Concentration", "setting": "[2]; Human Iris", "result": 1330, "unit": "nM"},
      {"measurement": "Dilution Corrected Concentration", "setting": "[2]; Human Iris", "result": 2.66, "unit": "µM"},
      {"measurement": "Calculated Concentration", "setting": "[2]; Human Lens", "result": 7620, "unit": "nM"},
      {"measurement": "Dilution Corrected Concentration", "setting": "[2]; Human Lens", "result": 15.24, "unit": "µM"},
      {"measurement": "Calculated Concentration", "setting": "[2]; Human Retina", "result": 4310, "unit": "nM"},
      {"measurement": "Dilution Corrected Concentration", "setting": "[2]; Human Retina", "result": 8.62, "unit": "µM"},
      {"measurement": "Calculated Concentration", "setting": "[2]; Human Vitreous Humor", "result": 2410, "unit": "nM"},
      {"measurement": "Dilution Corrected Concentration", "setting": "[2]; Human Vitreous Humor", "result": 4.82, "unit": "µM"},
      {"measurement": "Average Concentration in Lens", "setting": "[3]; 1 day of incubation", "result": 14.5, "unit": "µM"},
      {"measurement": "Average Concentration in Lens", "setting": "[3]; 2 days of incubation", "result": 20.7, "unit": "µM"},
      {"measurement": "Average Concentration in Lens", "setting": "[3]; 3 days of incubation", "result": 39.8, "unit": "µM"},
      {"measurement": "Average Concentration in Lens", "setting": "[3]; 4 days of incubation", "result": 37.8, "unit": "µM"}
    ]}
  ]
}
